Data on 4 compounds can be found in paper PMC12775434, “Ultra-large virtual screening unveils potent agonists of the neuromodulatory orphan receptor GPR139” (Nature Communications, 2025).

The target in the assay is T1, GPR139 (Gi2 activation) (Homo sapiens, UniProt Q6DWJ6).
T1 construct: expressed in transfected cells; host or cells: HEK293A (transient, Lipofectamine 2000)
T1 sequence (Q6DWJ6 1-353): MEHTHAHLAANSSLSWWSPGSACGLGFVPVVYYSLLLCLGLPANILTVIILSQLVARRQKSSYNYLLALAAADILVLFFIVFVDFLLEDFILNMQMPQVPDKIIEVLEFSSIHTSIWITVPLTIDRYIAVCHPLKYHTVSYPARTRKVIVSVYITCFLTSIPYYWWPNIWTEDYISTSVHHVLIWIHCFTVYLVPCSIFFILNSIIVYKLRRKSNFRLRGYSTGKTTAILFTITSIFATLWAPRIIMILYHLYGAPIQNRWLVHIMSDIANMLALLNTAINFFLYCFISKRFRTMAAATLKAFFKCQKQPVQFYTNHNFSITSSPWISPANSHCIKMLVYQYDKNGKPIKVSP
In words: BRET G protein activation (dissociation) assay, Gi2, HEK293A. Particulars: for Emax: HEK293-A, normalized to JNJ-63533054 (JNJ(S)); for EC50: Supplementary Table 6, read-out: pEC50 Gi2 (converted); for G protein activation, Gi2: individual replicates. In kind it is cell-based. How it is done:
Primary screening and pharmacological characterization of compounds were performed using a CHO-K1 cell line that stably expresses human GPR139 (GPR139-CHOk1). The GPR139-CHOk1 cell line was kindly provided by H. Lundbeck A/S, Denmark[24]. GPR139-CHOk1 cells were grown in Ham’s F-12 Kaighn’s Modification Medium (ThermoFisher #21127030) supplemented with 10% dialyzed fetal bovine serum (US origin, ThermoFisher #26400044), 100 units/mL Penicillin-Streptomycin (ThermoFisher #15140122), and 1 mg/mL Geneticin (ThermoFisher #11811031). […] M1R-CHOk1 cells were purchased from The Missouri S&T cDNA Resource Center (#CEM100TN00). M1R-CHOk1 cells were grown in Ham’s F12 Medium (ThermoFisher #21765029) supplemented with 10% fetal bovine serum (Brazilian origin, ThermoFisher #10270106), 100 units/mL Penicillin-Streptomycin, and 0.25 mg/mL Geneticin. HEK293A cells transiently transfected with GPR139 were used for additional pharmacological assessment of signaling pathways activated by GPR139. HEK239A cells were generously provided by Dr. Asuka Inoue, Tohoku University, Japan. HEK293A cells were grown in Dulbecco’s Modified Eagle Medium (ThermoFisher #31966047) supplemented with 10% dialyzed fetal bovine serum and 100 units/mL Penicillin-Streptomycin. Cell lines were maintained at 37 °C in humidified incubator equilibrated with 5% CO2.
The G protein dissociation assay developed by the lab of Kirill A. Martemyanov was used to measure the coupling of multiple G proteins by GPR139[57]. The assay was performed as described previously with minor modifications. HEK293A cells were reverse transfected 20–24 h prior to assay. 50,000 cells were plated in each well of white opaque tissue culture treated 96-well plates (PerkinElmer #6005680) previously coated with poly-D-lysine. Transfection solutions were prepared as described, and 10 µL transfection solution was mixed with 100 µL cells in each well. The cells in each well were transfected with 18.9 ng GPR139, 6.3 ng Venus 1-155 Gγ2, 6.3 ng Venus 159-239 Gβ1, 6.3 ng masGRK3ct-NanoLuc and 12.6 ng Gαi2, 12.6 ng Gαi3, 12.6 ng GαoA, 12.6 ng Gαq or 25.2 ng Gα12 using 375 nL Lipofectamine 2000 Transfection Reagent. Transfections with Gαq and Gα12 contained 6.3 ng DNA of the active subunit S1 of pertussis toxin (PTX-S1). Each transfection was normalized to 150 ng total DNA with pcDNA3.1. The BRET biosensors were a kind gift from the Martemyanov lab. On the day of the experiment the cells were washed with HEPES buffer. Test compounds were diluted in HEPES buffer from DMSO stocks (final DMSO concentration of maximally 0.3%). NanoLuc Luciferase substrate NanoGlo—furimazine (Promega #N1120) was diluted 1000-fold (final) in HEPES buffer. NanoGlo and test compounds were added, and measurements were performed after 10 s for Gi3, 15 s for Gi2 and GoA, 20 s for Gq, and 90 s for G12—the timepoint where maximal signal occurred with each G protein, ensuring proper determination of the potency for the G protein coupling. Simultaneous dual emission was measured at 535 nm and 475 nm on LUMIstar Omega Microplate Reader (BMG Labtech) at room temperature. The BRET ratio of 535 nm/475 nm (Venus/NanoLuc), reflecting the dissociation of the G protein heterotrimer, was used to determine the G protein activation. The basal BRET ratio obtained with buffer condition was subtracted from the absolute BRET ratio at a given test compound concentration, and the responses were normalized to the one obtained with 10 µM JNJ-63533054 for the activation of Gi2.
Pharmacological data and statistical analyses were performed in GraphPad Prism v9–10 (Graphpad Software Inc., San Diego, CA), which are also specifically described in the figure and table legends. […]

“And” between values parts separate entries of the source, which are not always exact repeats. Equal values may be shown once.

On to `Cc1cscc1-c1nc(CC(=O)N[C@H](C)c2ccccc2)no1` [1.1(R)], for which the Emax – broadly, the maximal effect, on the per cent scale that the assay sets – stood at 88 ± 11% and the EC50 was 794 nM. In addition, the “G protein activation, Gi2” value (log [compound] M -4.5) is 74 % of JNJ-63533054 at Gi2 and 72 % of JNJ-63533054 at Gi2 and 95 % of JNJ-63533054 at Gi2. Also, the “G protein activation, Gi2” value (log [compound] M -5.0) was 74 % of JNJ-63533054 at Gi2 and 67 % of JNJ-63533054 at Gi2 and 91 % of JNJ-63533054 at Gi2. In addition, the “G protein activation, Gi2” value (log [compound] M -5.5) is 63 % of JNJ-63533054 at Gi2 and 47 % of JNJ-63533054 at Gi2 and 77 % of JNJ-63533054 at Gi2. Moreover, the “G protein activation, Gi2” value (log [compound] M -6.0) is 51 % of JNJ-63533054 at Gi2 and 35 % of JNJ-63533054 at Gi2 and 64 % of JNJ-63533054 at Gi2. Under “log [compound] M -6.5”, the “G protein activation, Gi2” value was 30 % of JNJ-63533054 at Gi2 and 18 % of JNJ-63533054 at Gi2 and 40 % of JNJ-63533054 at Gi2. The “G protein activation, Gi2” value (log [compound] M -7.0) is 9 % of JNJ-63533054 at Gi2 and 1.06 % of JNJ-63533054 at Gi2 and 24 % of JNJ-63533054 at Gi2. The “G protein activation, Gi2” value (log [compound] M -7.5) was 6 % of JNJ-63533054 at Gi2 and -1.09 % of JNJ-63533054 at Gi2 and 22 % of JNJ-63533054 at Gi2. Besides, the “G protein activation, Gi2” value (log [compound] M -8.0) is -2.65 % of JNJ-63533054 at Gi2 and -5 % of JNJ-63533054 at Gi2 and 18 % of JNJ-63533054 at Gi2.

`Cc1cscc1-c1nc(CC(=O)N[C@@H](C)c2ccccc2)no1` [1.1(S)]: the maximal effect (Emax) stood at 95 ± 5% and the EC50 was 50.1 nM. For the same compound, for the setting “log [compound] M -4.5”, the “G protein activation, Gi2” value was 94 % of JNJ-63533054 at Gi2 (2×) and 104 % of JNJ-63533054 at Gi2. Moreover, for the setting “log [compound] M -5.0”, the “G protein activation, Gi2” value is 90 % of JNJ-63533054 at Gi2 (2×) and 104 % of JNJ-63533054 at Gi2. Further, for the setting “log [compound] M -5.5”, the “G protein activation, Gi2” value was 86 % of JNJ-63533054 at Gi2 and 80 % of JNJ-63533054 at Gi2 and 99 % of JNJ-63533054 at Gi2. In addition, the “G protein activation, Gi2” value (log [compound] M -6.0) was 86 % of JNJ-63533054 at Gi2 and 80 % of JNJ-63533054 at Gi2 and 99 % of JNJ-63533054 at Gi2. For the same compound, the “G protein activation, Gi2” value (log [compound] M -6.5) was 82 % of JNJ-63533054 at Gi2 and 74 % of JNJ-63533054 at Gi2 and 89 % of JNJ-63533054 at Gi2. Besides, the “G protein activation, Gi2” value (log [compound] M -7.0) is 63 % of JNJ-63533054 at Gi2 and 57 % of JNJ-63533054 at Gi2 and 72 % of JNJ-63533054 at Gi2. Moreover, under “log [compound] M -7.5”, the “G protein activation, Gi2” value was 36 % of JNJ-63533054 at Gi2 and 35 % of JNJ-63533054 at Gi2 and 49 % of JNJ-63533054 at Gi2. Besides, the “G protein activation, Gi2” value (log [compound] M -8.0) was 14 % of JNJ-63533054 at Gi2 and 11 % of JNJ-63533054 at Gi2 and 32 % of JNJ-63533054 at Gi2.

As for `C[C@@H](NC(=O)CNC(=O)c1cccc(Cl)c1)c1ccccc1` [JNJ(R), reference compound], the Emax was 86 ± 4% and the EC50 was 3980 nM. For the same compound, under “log [compound] M -4.5”, the “G protein activation, Gi2” value is 73 % of JNJ-63533054 at Gi2 and 81 % of JNJ-63533054 at Gi2 and 77 % of JNJ-63533054 at Gi2. In addition, for the setting “log [compound] M -5.0”, the “G protein activation, Gi2” value was 61 % of JNJ-63533054 at Gi2 and 62 % of JNJ-63533054 at Gi2 and 65 % of JNJ-63533054 at Gi2. Further, for the setting “log [compound] M -5.5”, the “G protein activation, Gi2” value was 41 % of JNJ-63533054 at Gi2 and 43 % of JNJ-63533054 at Gi2 and 42 % of JNJ-63533054 at Gi2. Also, the “G protein activation, Gi2” value (log [compound] M -6.0) is 16 % of JNJ-63533054 at Gi2 and 23 % of JNJ-63533054 at Gi2 and 21 % of JNJ-63533054 at Gi2. Besides, the “G protein activation, Gi2” value (log [compound] M -6.5) is 6 % of JNJ-63533054 at Gi2 and 7 % of JNJ-63533054 at Gi2 and 10 % of JNJ-63533054 at Gi2. Further, for the setting “log [compound] M -7.0”, the “G protein activation, Gi2” value is -0.885 % of JNJ-63533054 at Gi2 and 0.48 % of JNJ-63533054 at Gi2 and 10 % of JNJ-63533054 at Gi2. For the same compound, where the note is “log [compound] M -7.5”, the “G protein activation, Gi2” value was 0.698 % of JNJ-63533054 at Gi2 and -1 % of JNJ-63533054 at Gi2 and 11 % of JNJ-63533054 at Gi2. Also, the “G protein activation, Gi2” value (log [compound] M -8.0) is -0.866 % of JNJ-63533054 at Gi2 and -1.55 % of JNJ-63533054 at Gi2 and 11 % of JNJ-63533054 at Gi2.

Take `CC(NC(=O)CNC(=O)c1cccc(Cl)c1)c1ccccc1` (stereo not shown) [JNJ-63533054, reference compound]: the Emax was determined as 109 ± 1% and the EC50 was 50.1 nM. Further, the “G protein activation, Gi2” value (log [compound] M -4.5, listed as JNJ (S)) was 109 % of JNJ-63533054 at Gi2 and 111 % of JNJ-63533054 at Gi2 and 108 % of JNJ-63533054 at Gi2. Besides, the “G protein activation, Gi2” value (log [compound] M -5.0, listed as JNJ (S)) is 106 % of JNJ-63533054 at Gi2 and 107 % of JNJ-63533054 at Gi2 and 108 % of JNJ-63533054 at Gi2. In addition, the “G protein activation, Gi2” value (log [compound] M -5.5, listed as JNJ (S)) is 107 % of JNJ-63533054 at Gi2 and 103 % of JNJ-63533054 at Gi2 and 104 % of JNJ-63533054 at Gi2. Further, the “G protein activation, Gi2” value (log [compound] M -6.0, listed as JNJ (S)) is 102 % of JNJ-63533054 at Gi2 and 99 % of JNJ-63533054 at Gi2 and 98 % of JNJ-63533054 at Gi2. Besides, the “G protein activation, Gi2” value (log [compound] M -6.5, listed as JNJ (S)) is 92 % of JNJ-63533054 at Gi2 and 85 % of JNJ-63533054 at Gi2 (2×). For the same compound, the “G protein activation, Gi2” value (log [compound] M -7.0, listed as JNJ (S)) was 75 % of JNJ-63533054 at Gi2 and 67 % of JNJ-63533054 at Gi2 and 70 % of JNJ-63533054 at Gi2. The “G protein activation, Gi2” value (log [compound] M -7.5, listed as JNJ (S)) is 49 % of JNJ-63533054 at Gi2 and 44 % of JNJ-63533054 at Gi2 (2×). Also, the “G protein activation, Gi2” value (log [compound] M -8.0, listed as JNJ (S)) was 21 % of JNJ-63533054 at Gi2 (2×) and 20 % of JNJ-63533054 at Gi2.
